Assay results published in ChEMBL document CHEMBL1136114, “Advances Toward new antidepressants beyond SSRIs: 1-aryloxy-3-piperidinylpropan-2-ols with dual 5-HT(1A) receptor antagonism/SSRI activities. Part 2” (Bioorg Med Chem Lett, 2003).

Experiments:
[1] = biological target: T1, 5-hydroxytryptamine receptor 1A (Homo sapiens) (UniProt P08908); experiment: In vitro binding affinity towards 5-hydroxytryptamine 1A receptor using [3H]8-OH-DPAT as radioligand; settings: concentration not given here
T1 sequence (whole entry): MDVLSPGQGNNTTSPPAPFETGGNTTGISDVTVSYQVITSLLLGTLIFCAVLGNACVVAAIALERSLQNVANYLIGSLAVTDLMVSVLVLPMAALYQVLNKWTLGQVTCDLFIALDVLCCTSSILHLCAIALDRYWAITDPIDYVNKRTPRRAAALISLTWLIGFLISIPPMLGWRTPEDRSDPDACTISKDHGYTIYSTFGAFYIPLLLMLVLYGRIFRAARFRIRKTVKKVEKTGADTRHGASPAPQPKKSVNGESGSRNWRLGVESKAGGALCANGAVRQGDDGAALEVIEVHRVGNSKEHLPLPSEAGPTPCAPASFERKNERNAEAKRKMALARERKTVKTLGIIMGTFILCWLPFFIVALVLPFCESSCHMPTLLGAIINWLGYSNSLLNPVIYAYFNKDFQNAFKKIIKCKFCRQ

[2] = biological target: Sodium-dependent serotonin transporter (Rattus norvegicus, UniProt P31652); experiment: In vitro affinity at the 5-HT reuptake site using [3H]paroxetine as radioligand in rat frontal cortex membranes; format: cell membranes, Membrane
[3] = biological target: T1, 5-hydroxytryptamine receptor 1A (Homo sapiens); experiment: (§1) Inhibition of 5-HT induced [35S]GTP-gamma-S, binding at human cloned 5-HT 1A receptors.; format: functional
[4] = biological target: T1, 5-hydroxytryptamine receptor 1A (Homo sapiens); experiment: Stimulation of binding of [35S]GTP-gamma-S, to G protein mediated by human cloned 5-hydroxytryptamine 1A receptor tested in vitro at 1 uM.; format: functional
[5] = biological target: T2, 5-hydroxytryptamine receptor 1A (Homo sapiens, UniProt P08908); experiment: In vitro binding affinity at 5-hydroxytryptamine 1A receptor by [3H]8-OH-DPAT displacement.
T2 sequence (P08908 whole entry): T1 sequence (whole entry)

[6] = biological target: T2, 5-hydroxytryptamine receptor 1A; experiment: as §1; format: functional

Sodium-dependent serotonin transporter, sequence (P31652 whole entry): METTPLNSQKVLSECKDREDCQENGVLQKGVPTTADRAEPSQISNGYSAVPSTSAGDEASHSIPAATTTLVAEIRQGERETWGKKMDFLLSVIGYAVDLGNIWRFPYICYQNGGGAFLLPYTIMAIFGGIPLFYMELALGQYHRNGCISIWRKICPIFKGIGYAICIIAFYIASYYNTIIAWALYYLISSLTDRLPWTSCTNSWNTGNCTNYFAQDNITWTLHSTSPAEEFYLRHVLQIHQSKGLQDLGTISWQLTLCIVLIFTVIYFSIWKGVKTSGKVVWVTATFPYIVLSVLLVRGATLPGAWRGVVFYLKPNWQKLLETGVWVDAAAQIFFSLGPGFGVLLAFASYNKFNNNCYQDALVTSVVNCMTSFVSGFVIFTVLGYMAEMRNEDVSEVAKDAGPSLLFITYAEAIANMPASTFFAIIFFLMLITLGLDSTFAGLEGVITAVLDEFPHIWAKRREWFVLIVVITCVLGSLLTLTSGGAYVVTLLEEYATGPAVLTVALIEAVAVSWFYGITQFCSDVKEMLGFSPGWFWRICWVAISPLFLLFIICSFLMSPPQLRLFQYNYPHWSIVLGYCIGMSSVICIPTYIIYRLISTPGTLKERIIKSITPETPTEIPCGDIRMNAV

In the case of `Cc1ccc2cc([C@@H]3CCN(C[C@H](O)COc4cccc5[nH]ccc45)[C@@H](C)C3)sc2c1`, the inhibition [1] is reported as less than 50% and the Ki [2] is reported as 2.24 nM.

For `C[C@H]1C[C@H](c2cc3ccc(F)cc3s2)CCN1C[C@H](O)COc1cccc2[nH]ccc12`, the Emin [3] was 9%, the Stimulation [4] was 5.32% and the Ki [5] was 5.52 nM. For the same compound, the Ki [2] was 0.31 nM and the Ki [6] was 7.45 nM.

`COc1cccc2sc([C@@H]3CCN(C[C@H](O)COc4cccc5[nH]ccc45)[C@H](C)C3)cc12` was tested, and the Emin [3] was 2.01% and the Stimulation [4] was 1.2%.

`C[C@@H]1C[C@H](c2cc3cc(F)ccc3s2)CCN1C[C@H](O)COc1cccc2[nH]ccc12` showed an Emin [3] of 10.8%, a Stimulation [4] of 7.21% and a Ki [5] of 8.77 nM. For the same compound, the Ki [2] was 3.53 nM and the Ki [6] was 1.76 nM.

`COc1cccc2sc([C@@H]3CCN(C[C@H](O)COc4cccc5[nH]ccc45)[C@@H](C)C3)cc12` was tested, and the Stimulation [4] was 7.77%.

For `COc1cccc2sc([C@@H]3C[C@H]4CC[C@@H](C3)N4C[C@H](O)COc3cccc4[nH]ccc34)cc12` (stereo in doubt; endo) [listing 1 of 2 here], the Ki [2] was 0.17 nM.

In the case of `C[C@H]1C[C@H](c2cc3cc(Cl)ccc3s2)CCN1C[C@H](O)COc1cccc2[nH]ccc12`, the Emin [3] is reported as 6.81%, the Stimulation [4] is reported as 3.97% and the Ki [5] is reported as 8.34 nM. For the same compound, the Ki [2] was 0.58 nM and the Ki [6] was 5.26 nM.

With `C[C@H]1C[C@H](c2cc3c(C(F)(F)F)cccc3s2)CCN1C[C@H](O)COc1cccc2[nH]ccc12` the Ki [5] was 24.2 nM and the Ki [2] was 3.46 nM.

In the case of `Cc1cc(C)c2cc([C@@H]3CCN(C[C@H](O)COc4cccc5[nH]ccc45)[C@@H](C)C3)sc2c1`, the Ki [5] is reported as 94.9 nM and the Ki [2] is reported as 1.93 nM.

Compound `C[C@H]1C[C@H](c2cc3c(Cl)cccc3s2)CCN1C[C@H](O)COc1cccc2[nH]ccc12` has an inhibition [1] of less than 50% and a Ki [2] of 0.69 nM.

`C[C@H]1C[C@H](c2cc3c(F)cccc3s2)CCN1C[C@H](O)COc1cccc2[nH]ccc12` showed an Emin [3] of 7.44%, a Stimulation [4] of 5.37% and a Ki [2] of 1.16 nM. For the same compound, the Ki [6] was 4.88 nM.

`COc1cccc2sc([C@@H]3C[C@H]4CC[C@@H](C3)N4C[C@H](O)COc3cccc4[nH]ccc34)cc12` (stereo in doubt; endo) [listing 2 of 2 here] gave an inhibition [1] greater than 50%.

Compound `C[C@H]1C[C@H](c2cc3cc(F)ccc3s2)CCN1C[C@H](O)COc1cccc2[nH]ccc12` has an Emin [3] of 7.69%, a Stimulation [4] of 7.68% and a Ki [5] of 6.4 nM. The Ki [2] was 0.39 nM and the Ki [6] was 5.67 nM.

`C[C@H]1C[C@H](c2cc3ccc(Cl)cc3s2)CCN1C[C@H](O)COc1cccc2[nH]ccc12` showed an Emin [3] of 7.99%, a Stimulation [4] of 8.49% and a Ki [5] of 24.8 nM. The Ki [2] was 1.1 nM and the Ki [6] was 11.7 nM.

`Cc1cccc2sc([C@@H]3CCN(C[C@H](O)COc4cccc5[nH]ccc45)[C@@H](C)C3)cc12` showed an Emin [3] of 4.96%, a Stimulation [4] of 8.48% and a Ki [5] of 6.85 nM. The Ki [2] was 0.44 nM and the Ki [6] was 8.75 nM.

`COc1cccc2sc([C@@H]3C[C@H]4CC[C@@H](C3)N4C[C@H](O)COc3cccc4[nH]ccc34)cc12` (stereo in doubt; exo) [listing 1 of 2 here] showed an Emin [3] of 4.02% and a Stimulation [4] of 7.22%.

In the case of `COc1ccc2cc([C@@H]3CCN(C[C@H](O)COc4cccc5[nH]ccc45)[C@@H](C)C3)sc2c1`, the Emin [3] is reported as 6.67%, the Stimulation [4] is reported as 5.26% and the Ki [5] is reported as 14.5 nM. The Ki [2] was 1.1 nM and the Ki [6] was 2.98 nM.

Work on `C[C@H]1C[C@@H](c2cc3cc(F)ccc3s2)CCN1C[C@H](O)COc1cccc2[nH]ccc12` yielded an Emin [3] of 7.87%, a Stimulation [4] of 3.24% and a Ki [5] of 36.8 nM. It also gave a Ki [2] of 4.22 nM and a Ki [6] of 16.5 nM.

Compound `COc1cccc2sc([C@H]3CCN(C[C@H](O)COc4cccc5[nH]ccc45)[C@@H](C)C3)cc12` has an Emin [3] of 1.43% and a Stimulation [4] of 1.38%.

`C[C@@H]1C[C@@H](c2cc3cc(F)ccc3s2)CCN1C[C@H](O)COc1cccc2[nH]ccc12` was tested, and the Emin [3] was 10.5%, the Stimulation [4] was 6.35% and the Ki [5] was 11.7 nM. For the same compound, the Ki [2] was 0.99 nM and the Ki [6] was 16.7 nM.

Work on `COc1ccc2sc([C@@H]3CCN(C[C@H](O)COc4cccc5[nH]ccc45)[C@@H](C)C3)cc2c1OC` yielded an Emin [3] of 4.8%, a Stimulation [4] of 8.38% and a Ki [5] of 1.3 nM. For the same compound, the Ki [2] was 10.8 nM and the Ki [6] was 0.98 nM.

For `COc1cccc2sc([C@H]3CCN(C[C@H](O)COc4cccc5[nH]ccc45)[C@H](C)C3)cc12`, the Emin [3] was 5.97% and the Stimulation [4] was 4.41%.

In the case of `O[C@H](COc1cccc2[nH]ccc12)CN1[C@@H]2CC[C@H]1C[C@H](c1cc3ccccc3s1)C2`, the Emin [3] is reported as 9.4%, the Stimulation [4] is reported as 9.26% and the Ki [5] is reported as 30.5 nM. For the same compound, the Ki [2] was 0.07 nM and the Ki [6] was 70.1 nM.

Compound `C[C@H]1C[C@H](c2cc3cccc(F)c3s2)CCN1C[C@H](O)COc1cccc2[nH]ccc12` has an Emin [3] of 6.8%, a Stimulation [4] of 2.66% and a Ki [5] of 21.9 nM. The Ki [2] was 3.47 nM and the Ki [6] was 4.23 nM.

In the case of `C[C@H]1C[C@H](c2cc3ccccc3s2)CCN1C[C@H](O)COc1cccc2[nH]ccc12`, the Emin [3] is reported as 7.5%, the Stimulation [4] is reported as 6.32% and the Ki [5] is reported as 3.09 nM. The Ki [2] was 0.51 nM and the Ki [6] was 3.28 nM.

`COc1cccc2sc([C@@H]3C[C@H]4CC[C@@H](C3)N4C[C@H](O)COc3cccc4[nH]ccc34)cc12` (stereo in doubt; exo) [listing 2 of 2 here] gave a Ki [5] of 15.7 nM, a Ki [2] of 1.31 nM and a Ki [6] of 18.7 nM.
